Source: article PMC11597089, “Kratom Alkaloids: A Blood–Brain Barrier Specific Membrane Permeability Assay-Guided Isolation and Cyclodextrin Complexation Study” (Molecules, 2024)

Assay: ACE complex stability, ODMS-γ-CD
Assay type: physicochemical
Conditions: octakis-(2,3-O-dimethyl, 6-O-sulfo)-γ-CD, 30 mM phosphate buffer pH 7.4, 25 °C
Protocol: (§1) To investigate the CD complexation behavior of the four kratom alkaloids, we aimed to develop an ACE method for a systematic comparative study. […] To ensure sufficient buffer capacity and to avoid excessive current and Joule heat generation, the buffer concentration was set to 30 mM, and the applied voltage was 15 kV.
(§2) The ACE experiments were performed by using Agilent 7100 and HP^3DCE instruments (Agilent Technologies, Waldbronn, Germany). Untreated fused silica capillaries (total length of 48.5 cm, effective length of 40 cm, inner diameter of 50 μm) were purchased from Agilent Technologies. The new capillaries were conditioned with a 1 M NaOH wash for 1 h, followed by a 30 min wash each with 0.1 M NaOH and purified water. Prior to all runs, the capillary was preconditioned by rinsing with background electrolyte for 3 min. During the measurements, 30 mM phosphate buffer at pH 7.4 (30 mM Na2HPO4-NaOH) was used. The background electrolyte contained CDs at various concentrations. Stock solutions of the studied kratom alkaloids (mitragynine, paynantheine, speciogynine, speciociliatine) were prepared separately in methanol (1 mg/mL), and, right before the measurements, appropriate dilutions with purified water were used to prepare the sample solutions, applying 0.1% DMSO as the electroosmotic flow (EOF) marker. The samples were injected hydrodynamically at 40 mbar for 3 s. The positive polarity voltage was set to 15 kV, and the capillary was set to 25 °C. The electropherograms were recorded at four wavelengths (200 nm, 210 nm, 215 nm, and 220 nm), and the data were evaluated at 215 nm. In each case, three parallel measurements were performed. The measurements were evaluated using Origin and CEval software (v. 0.6i3).
(§3) In order to determine the complex stability constants that characterized the strength of the complexes, the first step was to determine the effective mobility of the analyte at specific CD concentrations. Triangular peaks caused by electromigration dispersion are often observed in ACE measurements.
(§4) Assuming a 1:1 complexation ratio and that the equilibrium CD concentration is almost equal to the total CD concentration, a relationship between the effective mobility relative to the EOF and the complex stability constant can be described by Function (4) (4) μeff=μA+μACDKstabCD/1+KstabCD where µeff is the effective mobility of the analyte, µA and µACD are the free and complexed analyte mobilities, [CD] is the concentration of the selector, and Kstab is the complex stability constant.
(§5) In order to calculate the exact, apparent, averaged complex stability constant values, viscosity correction and ionic strength correction were used.

Row | Molecule | complex stability constant (Kstab) with ODMS-γ-CD
1 | CC[C@H]1CN2CCc3c([nH]c4cccc(OC)c34)[C@@H]2C[C@@H]1/C(=C\OC)C(=O)OC [Speciogynine, speciogynine] | 250 ± 15 M⁻¹
2 | mitragynine | 80 ± 7 M⁻¹
3 | CC[C@@H]1CN2CCc3c([nH]c4cccc(OC)c34)[C@H]2C[C@@H]1/C(=C\OC)C(=O)OC [Speciociliatine, speciociliatine] | 230 ± 15 M⁻¹
4 | C=C[C@H]1CN2CCc3c([nH]c4cccc(OC)c34)[C@@H]2C[C@@H]1/C(=C\OC)C(=O)OC [Paynantheine, paynantheine] | 280 ± 25 M⁻¹

Assay: ACE complex stability, DIME-β-CD
Assay type: physicochemical
Conditions: dimethylated-β-CD DS~14, 30 mM phosphate buffer pH 7.4, 25 °C
Protocol: as §1, §2
(§6) In order to determine the complex stability constants that characterized the strength of the complexes, the first step was to determine the effective mobility of the analyte at specific CD concentrations. Triangular peaks caused by electromigration dispersion are often observed in ACE measurements. […]

Row | Molecule | complex stability constant (Kstab) with DIME-β-CD
5 | mitragynine | 150 ± 15 M⁻¹
6 | CC[C@@H]1CN2CCc3c([nH]c4cccc(OC)c34)[C@H]2C[C@@H]1/C(=C\OC)C(=O)OC [Speciociliatine, speciociliatine] | 100 ± 6 M⁻¹
7 | C=C[C@H]1CN2CCc3c([nH]c4cccc(OC)c34)[C@@H]2C[C@@H]1/C(=C\OC)C(=O)OC [Paynantheine, paynantheine] | 325 ± 30 M⁻¹

Assay: ACE complex stability, HP-γ-CD
Assay type: physicochemical
Conditions: hydroxypropylated-γ-CD DS~3, 30 mM phosphate buffer pH 7.4, 25 °C
Protocol: as §1, §2, §6

Row | Molecule | complex stability constant (Kstab) with HP-γ-CD
8 | mitragynine | 230 ± 35 M⁻¹
9 | CC[C@@H]1CN2CCc3c([nH]c4cccc(OC)c34)[C@H]2C[C@@H]1/C(=C\OC)C(=O)OC [Speciociliatine, speciociliatine] | 220 ± 25 M⁻¹
10 | C=C[C@H]1CN2CCc3c([nH]c4cccc(OC)c34)[C@@H]2C[C@@H]1/C(=C\OC)C(=O)OC [Paynantheine, paynantheine] | 325 ± 50 M⁻¹

Assay: ACE complex stability, HP-β-CD
Assay type: physicochemical
Conditions: hydroxypropylated-β-CD DS~4.5, 30 mM phosphate buffer pH 7.4, 25 °C
Protocol: as §1, §2, §6

Row | Molecule | complex stability constant (Kstab) with HP-β-CD
11 | mitragynine | 35 ± 2 M⁻¹
12 | CC[C@@H]1CN2CCc3c([nH]c4cccc(OC)c34)[C@H]2C[C@@H]1/C(=C\OC)C(=O)OC [Speciociliatine, speciociliatine] | 30 ± 3 M⁻¹
13 | C=C[C@H]1CN2CCc3c([nH]c4cccc(OC)c34)[C@@H]2C[C@@H]1/C(=C\OC)C(=O)OC [Paynantheine, paynantheine] | 75 ± 5 M⁻¹

Assay: ACE complex stability, CE-β-CD
Assay type: physicochemical
Conditions: carboxyethylated-β-CD DS~3, 30 mM phosphate buffer pH 7.4, 25 °C
Protocol: as §1, §2, §3, §4, §5

Row | Molecule | complex stability constant (Kstab) with CE-β-CD
14 | CC[C@H]1CN2CCc3c([nH]c4cccc(OC)c34)[C@@H]2C[C@@H]1/C(=C\OC)C(=O)OC [Speciogynine, speciogynine] | 375 ± 25 M⁻¹
15 | mitragynine | 210 ± 20 M⁻¹
16 | CC[C@@H]1CN2CCc3c([nH]c4cccc(OC)c34)[C@H]2C[C@@H]1/C(=C\OC)C(=O)OC [Speciociliatine, speciociliatine] | 160 ± 10 M⁻¹
17 | C=C[C@H]1CN2CCc3c([nH]c4cccc(OC)c34)[C@@H]2C[C@@H]1/C(=C\OC)C(=O)OC [Paynantheine, paynantheine] | 625 ± 40 M⁻¹

Assay: ACE complex stability, Phos-β-CD
Assay type: physicochemical
Conditions: phosphated-β-CD DS~2-6, 30 mM phosphate buffer pH 7.4, 25 °C
Protocol: as §1, §2, §3, §4, §5

Row | Molecule | complex stability constant (Kstab) with Phos-β-CD
18 | CC[C@H]1CN2CCc3c([nH]c4cccc(OC)c34)[C@@H]2C[C@@H]1/C(=C\OC)C(=O)OC [Speciogynine, speciogynine] | 420 ± 30 M⁻¹
19 | mitragynine | 290 ± 30 M⁻¹
20 | CC[C@@H]1CN2CCc3c([nH]c4cccc(OC)c34)[C@H]2C[C@@H]1/C(=C\OC)C(=O)OC [Speciociliatine, speciociliatine] | 215 ± 15 M⁻¹
21 | C=C[C@H]1CN2CCc3c([nH]c4cccc(OC)c34)[C@@H]2C[C@@H]1/C(=C\OC)C(=O)OC [Paynantheine, paynantheine] | 335 ± 30 M⁻¹

Assay: PAMPA-BBB permeability assay
Assay type: in vitro ADME, porcine
Conditions: PAMPA-BBB, in words
Protocol: Kratom extracts were tested for the membrane permeability of their constituents in a PAMPA-BBB assay. […] The blood–brain barrier-specific assay was tested and optimized for natural products by Könczöl et al.; this PAMPA-BBB assay was therefore chosen to determine the BBB permeability of the kratom constituents. […] It should be noted, however, that among the minor components that were not the focus of this study, there may be BBB+ compounds with significant biological activity.
All four isolated kratom alkaloids were also tested in the PAMPA-BBB model. As it can be seen in Table 1, all the investigated compounds had logPe values of between −4.42 and −4.77, which were greater than −6.0; according to Könczöl et al., this value effectively discriminates between compounds with good (BBB+) and poor (BBB−) blood–brain barrier permeability.
PAMPA-BBB was used to determine the effective permeability (Pe) for some extracts and the isolated compounds. Stock solutions (10 mM in DMSO) were diluted with the buffer (pH 7.4) to obtain the donor solutions (composition: 594.0 μL buffer + 6.0 μL stock solution). The buffer was prepared as follows: one PBS (phosphate-buffered saline, pH 7.4; Sigma Aldrich, Budapest, Hungary) tablet dissolved in 200.0 mL distilled water. Donor solutions were filtered through Phenex-RC 15 mm, 0.2 μm syringe filters (Gen-Lab Ltd., Budapest, Hungary).
For PAMPA-BBB, 5 μL of porcine polar brain lipid extract (PBLE) solution (16.0 mg of PBLE + 8.0 mg of cholesterol dissolved in 600.0 μL of n-dodecane) was applied to each well of 96-well polycarbonate-based filter donor plates (top plate) (Multiscreen™-IP, MAIPN4510, pore size 0.45 μm; Merck). The 96-well PTFE acceptor plates (bottom plates) (Multiscreen Acceptor Plate, MSSACCEPTOR; Merck) were filled with 300.0 μL of buffer solution (0.01 M PBS buffer, pH 7.4). The donor plate was placed upon the acceptor plate, and both plates were incubated together at 37 °C for 4 h in a Heidolph Titramax 1000 Vibrating platform shaker (Heidolph, Schwabach, Germany).
After incubation, sandwich plates were separated, and the concentrations of each compound in the starting donor solution and in the acceptor and donor wells were determined in triplicate by the chromatographic peak areas derived from the UHPLC-UV method described above. The UV spectra and chromatograms were recorded at 200–400 nm, and the chromatograms acquired at the UV absorption maxima of each compound were used for data evaluation. The effective permeability and the membrane retention in PAMPA-BBB were calculated by Equations (1) and (2), respectively:(1) Pe=−2.303/A(t−τSS)·(VA·VD/VA+VD)·lg[1−(VA+VD/(1−MR)·VD)×(CA(t)/CD(0))] where Pe is the effective permeability coefficient (cm/s), A is the filter area (0.24 cm^2), VD and VA are the volumes in the donor (0.15 cm^3) and acceptor phases (0.30 cm^3), t is the incubation time (s), τSS is the time (s) to reach the steady state (240 s), CD(t) is the concentration (mol/cm^3) of the compound in the donor phase at time t, CD(0) is the concentration (mol/cm^3) of the compound in the donor phase at time 0, and MR is the estimated membrane retention factor (the estimated mole fraction of solute lost to the membrane), defined as (2) MR=1−CD(t)/CD(0)−VA/VDCA(t)/CD(0)
All experiments were performed in triplicate on three consecutive days (n = 9); caffeine standard was used as the positive control, with rutin as the negative control.

Row | Molecule | in vitro BBB permeability
22 | CC[C@H]1CN2CCc3c([nH]c4cccc(OC)c34)[C@@H]2C[C@@H]1/C(=C\OC)C(=O)OC [Speciogynine, speciogynine] | excellent
23 | mitragynine | excellent
24 | CC[C@@H]1CN2CCc3c([nH]c4cccc(OC)c34)[C@H]2C[C@@H]1/C(=C\OC)C(=O)OC [Speciociliatine, speciociliatine] | excellent
25 | C=C[C@H]1CN2CCc3c([nH]c4cccc(OC)c34)[C@@H]2C[C@@H]1/C(=C\OC)C(=O)OC [Paynantheine, paynantheine] | excellent

Same assay, conditions: pH 7.4, 37 °C, 4 h, n = 9; Pe in cm/s

Row | Molecule | logPe PAMPA-BBB (n = 9)
26 | mitragynine | −4.42 ± 0.61

Same assay, conditions: pig, PAMPA; pH 7.4, 37 °C, 4 h, n = 9; Pe in cm/s; read-out: logPe PAMPA-BBB (n = 9) (converted)

Row | Molecule | Papp at 4 h, 100 µM
27 | CC[C@H]1CN2CCc3c([nH]c4cccc(OC)c34)[C@@H]2C[C@@H]1/C(=C\OC)C(=O)OC [Speciogynine, speciogynine] | 17 ×10⁻⁶ cm/s
28 | CC[C@@H]1CN2CCc3c([nH]c4cccc(OC)c34)[C@H]2C[C@@H]1/C(=C\OC)C(=O)OC [Speciociliatine, speciociliatine] | 26.3 ×10⁻⁶ cm/s
29 | C=C[C@H]1CN2CCc3c([nH]c4cccc(OC)c34)[C@@H]2C[C@@H]1/C(=C\OC)C(=O)OC [Paynantheine, paynantheine] | 24.5 ×10⁻⁶ cm/s
